Assay results as given in patent publication US20250082695A1, “USE OF GLYCEROL FOR INCREASING BUTYRATE PRODUCTION BY BACTERIA IN A CONSORTIUM” (PHARMABIOME AG, priority 2019, published 2025).

Columns and labels:
Assay type in all cases: cell-based
[1] = tested on: bacterial consortium PB002; experiment: Continuous co-culture of consortium PB002 in a bioreactor, daily metabolite concentrations before and after glycerol supplementation; details: PB002, addition of 30 mM glycerol at day 38 of continuous culture
Text: FIG. 1: Daily metabolite concentration of the continuously co-cultured bacterial consortium PB002 in a bioreactor before and after the supplementation of glycerol. Day of sampling from day 30 to day 55 after inoculation are represented on the x-axis and the concentrations of acetate, propionate, butyrate, formate, lactate, and succinate indicated in mM on the y-axis.
The concentrations of the produced metabolites were quantified by refractive index detection HPLC (Thermo Scientific Accela™, ThermoFisher Scientific; HPLC-RI)). […] Bacteria cultures to be analyzed were centrifuged at 14.000-x g for 10 min at 4° C. Filter-sterilized ([…]) supernatants were analyzed. […] Peaks were analyzed using AgilentEzChrome Elite software (Version: 3.3.2 SP2, Agilent Technologies, Inc. Pleasanton, USA). […]
(§1) The bioreactor was consecutively operated at pH 6.0 for 24 h in order to allow growth of primary degraders and subsequent consumption of the produced intermediate metabolites. Growth was monitored by base consumption and optical density. Metabolites were monitored using HPLC-RI as described above. […]
The consortium PB002 was continuously cultured in a bioreactor during 55 days. Metabolite concentrations were measured daily before and after glycerol supplementation (addition of 30 mM glycerol) at day 38.

[2] = tested on: butyrate producing strains of group A6; experiment: qPCR quantification of absolute abundances of PB002 strains during continuous culture; details: glycerol supplementation
Text: FIG. 2: Absolute abundances of all strains of the continuously cultured consortium PB002 in a bioreactor before and after the supplementation of glycerol. Abundances were quantified using qPCR and are indicated in copies of the 16S rRNA gene/ml of culture for the strains representing A1, A2, A3, A4, A5, A6, A7, A8, and A9.
To test maintenance of all bacterial strains of exemplary consortia PB002 and PB010 in the culture over time, qPCR quantification of the single strains of each consortium was performed using the primers listed in Table 3.
DNA from pellets of the fermentation effluent was extracted using the FastDNA™ SPIN Kit for Soil (MP Bio). Genomic DNA extracts were 10-fold diluted using DNA-free H2O. qPCRs were performed using Mastermix SYBR® green 2× and LowRox (Kapa Biosystems), primers (10 μM) and DNA-free H2O were used in a ABI 7500 FAST thermal cycler (Applied Biosystems) as recommended by the producer and quantified using standards of amplified whole 16S rRNA gene amplicon sequences of the strains cloned into the pGEMT easy vector (Promega, Madison WI, USA). Amplification of the whole 16S rRNA gene was performed with a combination of whole 16S rRNA gene amplification primers using one forward and one reverse primer from the primers listed in Table 4. qPCR quantification of the single strains is shown in copies of genomic 16S rRNA gene per ml of culture (FIG. 2). […]

[3] = tested on: bacterial consortium PB010; experiment: Continuous co-culture of consortium PB010 in bioreactors with and without glycerol, absolute metabolite concentrations; details: PB010, medium with 30 mM glycerol vs without, day 8 after inoculation
Text: FIG. 4: Absolute metabolite concentration of the continuously co-cultured bacterial consortium PB010 in a bioreactor at day 8 after inoculation: (1) cultured in a culture medium without glycerol, (2) cultured in a culture medium supplemented with glycerol. Absolute metabolites of the two reactors are represented on the x-axis and the concentrations of acetate, propionate, and butyrate are indicated in mM on the y-axis.
The concentrations of the produced metabolites were quantified by refractive index detection HPLC (Thermo Scientific Accela™, ThermoFisher Scientific; HPLC-RI)). HPLC-RI analysis was performed using a SecurityGuard Cartridges Carbo-H (4×3.0 mm) (Phenomenex, Torrence, USA) as guard-column connected to a Rezex ROA-Organic Acid H+ column (300×7.8 mm) (Phenomenex). Bacteria cultures to be analyzed were centrifuged at 14.000-x g for 10 min at 4° C. Filter-sterilized ([…]) supernatants were analyzed. Injection volume for each sample was […]. […] Peaks were analyzed using AgilentEzChrome Elite software (Version: 3.3.2 SP2, Agilent Technologies, Inc. Pleasanton, USA). […]
as §1

[4] = tested on: bacterial consortium PB002; experiment: Continuous co-culture, relative end metabolite concentrations on day 2 and 8 (glycerol supplemented after day 2), PB002; details: PB002 (n=2), glycerol supplemented after day 2, day 8 vs day 2
Procedure: (§2) FIG. 5: Relative end metabolite concentration of the continuously co-cultured bacterial consortia PB002 (n=2) and PB010 (n=3) in bioreactors on day 2 and 8 of co-cultivation. All bioreactors were cultivated for 48 hours in a medium without glycerol.
(§3) The bacterial consortium PB002 and the bacterial consortium PB010 were continuously cultured in bioreactors. Relative end metabolite concentrations were determined on day 2 and 8 of co-cultivation.
(§4) All bioreactors were cultivated for 48 hours in a medium without glycerol.

[5] = tested on: bacterial consortium PB010; experiment: Continuous co-culture, relative end metabolite concentrations on day 2 and 8 (glycerol supplemented after day 2), PB010; details: PB010 (n=3), glycerol supplemented after day 2, day 8 vs day 2
Procedure: as §2, §3, §4

For `OCC(O)CO` [glycerol], which “accumulation of the intermediate metabolites formate, lactate, succinate” value [1] is on record?
Its value is “no accumulation”.

And the “butyrate production of the consortium” value [1]?
The value was “enhanced butyrate production immediately”.

And the “abundance of butyrate producing strains of group A6 (16S rRNA gene copies/ml)” value [2]?
The value was “positively affects abundance”.

What about the “accumulation of succinate, lactate or formate” value [3] of the same compound?
The value was “no accumulation”.

And the “butyrate production of the consortium” value [3]?
Its value is “stimulates butyrate production”.

What about the “butyrate production (relative end metabolite concentration)” value [4] of the same compound?
The value was “increase in butyrate production”.

And the “butyrate production (relative end metabolite concentration)” value [5]?
Its value is “increase in butyrate production”.
